{"source": "patent US11465989B2", "about": "“Guanidine compounds and use thereof” (IMMUNOMET THERAPEUTICS INC., priority 2014, dated 2022)", "type_in_all_cases": "cell-based", "key": {"[1]": {"system": "A549 cells", "assay": "In vitro combination study with Dasatinib on A549 cell", "conditions": "in combination with 0.05 μM of Dasatinib, 72-hour treatment", "description": "(§1) A549, H1975 (CRL5908, ATCC) or U937 cell (CRL1593.2™, ATCC) lines were cultured in RPMI 1640 media (Lifetechnologies, CA) with supplement of 10% FBS and antibiotic-antimycotic (Lifetechnologies, CA). Dasatinib (Combi-Blocks, San Diego, Calif.) is Bcr-Abl-tyrosine kinase inhibitor and Src family tyrosine kinase inhibitor approved for CML treatment. GDC094 (Selleckchem, Houston, Tex.) is a pan-PI3K inhibitor and effective in various cancer cells. H1975 or A549 cells were dissociated from culture plate using 0.5% trypsin-EDTA (Lifetechnologies, CA) and were suspended. U937 cells were spun down using centrifugation. […]\n(§2) Among four concentrations of the compounds of present invention, the highest concentration was set to IC80 and the lowest concentration was approximately IC30. […] 100 μl of DMSO was added after removing MTT solution from each well, and were read by VICTOR X3 Multilabel Counter at the wavelength of 550 nm.\n(§3) For the analysis of U937 cell viability, 20 μl of Celltiter96® AQueous one solution (MTS, Promega, Madison, Wis.) were added to each well, and plates were incubated at 37° C. and 5% CO2. After 2 hours later, plates read by VICTOR X3 Multilabel Counter at the wavelength of 490 nm. The combination index (CI value) was calculated using Calcusyn (Biosoft, UK)."}, "[2]": {"system": "U937 cell", "assay": "In vitro combination study with GDC0941 on U937 cell", "description": "as §1, §2, §3"}, "[3]": {"system": "H1975 cell", "assay": "In vitro combination study with Dasatinib on H1975 cell", "conditions": "0.2 μM of Dasatinib, 8 μM or 40 μM of Example 1, 40 μM or 200 μM of Example 104", "description": "as §1, §2, §3"}, "[4]": {"system": "A549 cells", "assay": "Inhibition of OCR (XF Analyzer)", "conditions": "Homo sapiens, A549, 24 h", "from_the_text": "The electron transfer complex in mitochondria is composed of 5 complexes. The complex I accept electrons from NADH produced from glycolysis and TCA cycle and the electrons move to complex […] and the electron is finally transferred to O2 and water molecule is generated. During the electron transfer, proton gradient is generated and the chemical gradient is a driving source to synthesize ATP at complex V. The mitochondrial inhibition of complex I indirectly assessed by measuring the oxygen consumption rate (OCR) at complex IV. […] The solution outside of cells becomes acidic (lower pH) as lactate is transported to outside of cells. OCR and Extracellular acidification rate (ECAR) are determined by XF Analyzer (Seahorse Biosciences).\nA549 cells were purchased from American Type Tissue Culture Collection ([…]) and cultured in RPMI 1640 supplied with 10% fetal bovine serum (FBS) and antibiotic-antimycotic (Lifetech, CA). A549 cells were separated with 0.5% Trypsin-EDTA and 3,000 cells were plated on 1 mg/ml poly-D-lysine (Sigma, P6407) coated XF 96 well […]. A549 cells were allowed to adhere to the wells for 24 hours under the condition of temperature, 37° C. and 5% CO2 The sensor cartridge of XF Analyzer was soaked in 200 Ad of Calibrant solution (Seahorse, MA) in a clear 96-well plate at 37° C. for 24 hours. The compounds of the present invention were diluted with RPMI 1640 without FBS, transferred to A549 cells on XF 96 well plate, and incubated further for 23 hours at 37° C. and 5% CO2. After incubation, the compound solution was exchanged with pre-warmed and pH adjusted (pH7.4) XF assay media (Seahorse) supplied with 15 mM D-glucose (Sigma), 15 mM sodium pyruvate (Lifetechnologies, CA) and 4 mM L-glutamine (Lifetechnologies, CA). The compounds of present invention were prepared in XF Assay media and added to the assay plate. The assay plate was equilibrated in XF Analyzer for 1 hour, and the reading were started by sensor cartridge. The cytotoxicity assay was followed using Cyquant (Lifetechnologies, CA) in order to calibrate the inhibition with cytotoxicity of compounds. The concentrations of the compounds were tested at […] and IC50 value was obtained from the inhibited values. That is, from OCR inhibition values at each concentration of the compound, IC50 was calculated according to Prism's dose response curve fitting.\nIn Table 1, the levels of OCR IC50 are evaluated by the following."}, "[5]": {"system": "A549 cell", "assay": "In vitro combination study with GDC0941 on A549 cell", "description": "as §1, §2, §3"}}, "note": "Structures can show the parent of a compound that is named as a salt.", "data": [{"compound": "N=C(N)NC(=N)NCCc1ccc(Cl)c(Cl)c1", "note": "[Example 1, N-1-(3,4-dichloro)phenethylbiguanide hydrochloride]", "values": [{"measurement": "CI value (combination index)", "setting": "[1]", "result": 0.289}, {"measurement": "CI value (combination index)", "setting": "[2]", "result": "lower than 1"}, {"measurement": "combination therapy effect with Dasatinib", "setting": "[3]", "result": "low combination therapy effect"}, {"measurement": "IC50", "setting": "[4]", "result": "> 5", "unit": "µM"}, {"measurement": "CI value (combination index)", "setting": "[5]", "result": "lower than 1"}]}]}
